Source: patent US20210322651A1, “SUPPRESSION OF NEOINTIMAL FORMATION FOLLOWING VASCULAR SURGERU USING CDK8 INHIBITORS” (Senex Biotechnology, Inc., priority 2014, published 2021)

What was measured:
jugular vein isografts = experiment: Neointimal formation in jugular vein isografts (cuff model; H&E and SMA staining, morphological analysis); format: in vivo, C57BL/6J mice
Experimental: Male C57BL/6J mice were purchased from Vital River Laboratory Animal Technology Co. Ltd, Beijing, China, and housed under a 12:12 h light-dark cycle and given free access to food and water. All animal experiments were performed according to National Institutes of Health Guidelines for the Care and Use of Laboratory Animals and approved by the Institutional Animal Care and Usage Committees at Shandong University and the University of South Carolina, USA. The jugular vein transplantation was performed using different male C57BL/6J mice as donors and recipients. Briefly, 12-wk-old male C57BL/6J mice were anesthetized with pentobarbital sodium (50 mg/kg body weight, i.p.). The operation was performed under a dissecting microscope (SZ2-ILST, Olympus Corporation, Tokyo, Japan). The right common carotid artery of a male C57BL/6J mouse was mobilized and divided. A 1-mm cuff with a 1-mm handle (0.65 mm in diameter outside and 0.5 mm inside, F 800/200/100/200, Portex Ltd) was placed on both ends of the artery, and the ends were reverted over the cuff and ligated with an 8-0 silk ligature (130715, 130715, LingQiao). External jugular vein (1 cm) from a donor mouse was harvested and washed with saline solution, and grafted between the 2 ends of the carotid artery without changing the direction of blood flow. The ischemia time of vein segments was less than 15 min. The results are shown in Examples 7-9.
Mice at 0, 1, 3, 7, 14, 21 and 42 days after transplantation (four randomly chosen mice at each time point) were anesthetized with pentobarbital sodium (50 mg/kg body weight, i.p.) and euthanized by exsanguination. […]
From the proximal end, the last section with the cuff tube was counted as #0. […]
(§1) Tissue sections were subjected to hematoxylin and eosin (H&E) or immunofluorescence staining as previously described^41. […] Fluorescent images were acquired by Nikon Eclipse Ti or UltraVIEW®VOX confocal microscope and analyzed with the Volocity software (PerkinElmer, Waltham, Mass., USA). […]

[1] = tested on: resident VSCs (Sca-1+, NFM+, Sox17+ cells) in jugular vein isografts; experiment: Immunofluorescence staining of VSC and SMC markers (Sca-1, Ki67, SMA, NFM, Sox17) in jugular vein isografts after drug treatment; format: in vivo, C57BL/6J mice
Experimental: Male C57BL/6J mice were purchased from Vital River Laboratory Animal Technology Co. Ltd, Beijing, China, and housed under a 12:12 h light-dark cycle and given free access to food and water. All animal experiments were performed according to National Institutes of Health Guidelines for the Care and Use of Laboratory Animals and approved by the Institutional Animal Care and Usage Committees at Shandong University and the University of South Carolina, USA. The jugular vein transplantation was performed using different male C57BL/6J mice as donors and recipients. Briefly, 12-wk-old male C57BL/6J mice were anesthetized with pentobarbital sodium (50 mg/kg body weight, i.p.). The operation was performed under a dissecting microscope (SZ2-ILST, Olympus Corporation, Tokyo, Japan). The right common carotid artery of a male C57BL/6J mouse was mobilized and divided. […]
as §1

Sca-1+ VSCs = experiment: Sca-1+ cell growth in stem cell growth medium (daily cell count for 8 days; [3H]thymidine uptake); format: cell-based, mouse
Experimental: Aortic adventitial Sca-1^+ cells were isolated and cultured as previously described^24. Briefly, the aortic arch and root together with a proportion of the heart from male 8-wk-old C57BL/6J mice were removed. Under a dissection microscope, adventitial tissues were carefully harvested. The adventitial tissues were cut into pieces (about 0.5 mm^3) and explanted onto a 3.5 cm dish in a CO2 incubator at 37° C. for 2 h. The stem cell growth medium (CellGro SCGM, CellGenix, Germany) containing 10% FBS (Gibco, USA), 10 ng/ml leukemia inhibitory factor (Lif) (Millipore, Temecula, Calif., USA) and 0.1 mmol/L 2-mercaptoethanol (Invitrogen, USA) was added and incubated for 5-7 days. Medium was changed every 2 days. […] The purity and viability of isolated Sca-1^+ cells were evaluated by immunostaining and trypan blue exclusion, respectively. […]
The P5 Sca-1^+ VSCs or P32 RASMCs were serum-starved for 24 h, and then cultured with full stem cell or regular growth medium with or without simvastatin for 24 h. […] The radioactivity was measured as previously described^41.
P7 Sca-1^+ VSCs (4×10^4/well) were seeded in stem cell medium (SCGM+10% FBS+10 ng/ml Lif+0.1 mmol/L 2-mercaptoethanol) with or without simvastatin (3 μmol/L) or Senexin A (2.5 μmol/L) in 6-well plates. […] The number of cells was counted daily for 8 days.

rat aortic SMCs (RASMCs) = experiment: RASMC proliferation ([3H]thymidine uptake); format: cell-based
Experimental: Rat aortic SMCs (RASMCs) were isolated from the thoracic aorta and cultured as described elsewhere^40. Enzymatically isolated SMCs from adult male Wistar rats were cultured in high glucose (4.5 g/L) Dulbecco's modified Eagle's medium (DMEM) (Cat#: 11995, Invitrogen, Grand Island, N.Y., USA) with 10% FBS (Invitrogen) in a CO2 incubator at 37° C. Subculture was performed when the cells were grown to the 70˜80% confluent state. We used the RASMCs at passage (P) 32 to do the [^3H]thymidine uptake assay. The P5 Sca-1^+ VSCs or P32 RASMCs were serum-starved for 24 h, and then cultured with full stem cell or regular growth medium with or without simvastatin for 24 h. [^3H]thymidine (1 μCi/ml) were added during the last 4 h of culture. The radioactivity was measured as previously described^41. […] Serum-starved RASMCs at passage 32 were treated with or without 10% FBS and Senexin (Senx A, 2.5 μM) for 24 h. n=4, *p<0.05 vs. control (−) in the same group.

[2] = Senexin B, concentration not given

Row | Compound | neointimal formation in vein isografts (jugular vein isografts; Senexin B 20 mg/kg/d intragastric, started 3 days prior to transplantation, 4 wk) | Sca-1+ cell differentiation into SMCs ([1]; Senexin B 20 mg/kg/d intragastric from 3 days prior, 14 and 28 days) | Sca-1+ cell growth (Sca-1+ VSCs; [2]) | SMC proliferation (rat aortic SMCs (RASMCs); [2]) | neointimal formation in vein isografts (jugular vein isografts; Senexin A (3 μmon) peri-vascular in Pluronic F-127 gel immediately after transplantation, 4 weeks) | duration of inhibitory effect on neointimal formation in vein grafts (jugular vein isografts; short-term peri-vascular Senexin A, after transplantation) [days] | Sca-1+ cell differentiation into SMCs ([1]; local Senexin A, 7 days) | Sca-1+ cell proliferation (Sca-1+ VSCs; Senexin A 2.5 μM, growth curve 8 days) | rat aortic SMC (RASMC) growth (rat aortic SMCs (RASMCs); Senexin A 2.5 μM, 24 h, 10% FBS, passage 32)
1 | CN1CCN(C(=O)c2ccc3cc(CCNc4ncnc5ccc(C#N)cc45)ccc3c2)CC1 [Senexin B] | suppressed neointimal formation | inhibited | inhibited | had no impact |  |  |  |  | 
2 | N#Cc1ccc2ncnc(NCCc3ccccc3)c2c1 [Senexin A] |  |  |  |  | suppressed neointimal formation | 100 | inhibited | suppressed | without affecting
